In US10221163B2 (priority 2015, dated 2019):
Like-named read-outs stand apart in the source and are kept apart here.

How the values were obtained:
[1] = molecular target: IMP-1 (Serratia marcescens, UniProt P52699); test: biochemical; type: biochemical; settings: fluorescence assay, CCF2-FA substrate, 2 pM enzyme, 2 hours at 25° C.; read-out: IMP-1 IC50
Outline: (§1)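 Class B activity is measured in the presence of compound by fluorescence with CCF2-FA after a 2-hour incubation at 25° C. IC50 is taken from a 4-parameter fit of semi-logarithmic dose-response data.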

[2] = molecular target: NDM-1 (Klebsiella pneumoniae, UniProt C7C422); test: biochemical; type: biochemical; settings: CCF2-FA substrate, 1 pM enzyme, 2 hours at 25° C.
Chain of NDM-1 (C7C422 whole entry, looked up, species assumed): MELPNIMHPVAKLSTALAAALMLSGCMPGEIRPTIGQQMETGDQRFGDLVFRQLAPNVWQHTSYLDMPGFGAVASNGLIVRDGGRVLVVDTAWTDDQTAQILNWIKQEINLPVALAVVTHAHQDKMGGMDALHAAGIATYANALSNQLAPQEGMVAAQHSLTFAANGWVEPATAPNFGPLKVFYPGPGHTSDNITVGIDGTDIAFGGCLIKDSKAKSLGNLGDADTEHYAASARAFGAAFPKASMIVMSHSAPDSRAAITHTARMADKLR
Outline: as §1

[3] = molecular target: VIM-1 (Pseudomonas aeruginosa (strain ATCC 15692 / DSM 22644 / CIP 104116 / JCM 14847 / LMG 12228 / 1C / PRS 101 / PAO1), UniProt A0A0F7KYQ8); test: biochemical; settings: CCF2-FA substrate, 30 pM enzyme, 2 hours at 25° C.
Outline: as §1

[4] = test system: Escherichia coli expressing NDM-1 (CLB30005, CLB30016); type: cell-based; settings: with imipenem 1 μg/ml; for Escherichia coli MITC95: NDM-1 strain, 95% inhibition of growth; for Escherichia coli expressing NDM-1 (CLB30016) MITC95: 95% inhibition of bacterial growth
Outline: (§2)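 Imipenem 1 μg/ml + inhibitor; MBL-expressing clinical strains in 1.1×CAMHB, inoculum from saline suspension diluted 1:100; 35° C, 22–24 h; absorbance read-out.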

[5] = test system: Klebsiella pneumoniae expressing VIM-1 (IHMA599644); type: cell-based; settings: for Klebsiella pneumoniae MITC95: VIM-1 strain IHMA599644, with imipenem 1 μg/ml, 95% inhibition of growth; for Klebsiella pneumoniae expressing VIM-1 (IHMA599644) MITC95: with imipenem 1 μg/ml, 95% inhibition of bacterial growth
Outline: as §2

[6] = test system: Serratia marcescens expressing IMP-1 (CL5741); type: cell-based; settings: for Serratia marcescens MITC95: IMP-1 strain CL5741, with imipenem 1 μg/ml, 95% inhibition of growth; for Serratia marcescens expressing IMP-1 (CL5741) MITC95: with imipenem 1 μg/ml, 95% inhibition of bacterial growth
Outline: as §2

[7] = test system: Pseudomonas aeruginosa efflux+ (MB9798), IMP-1; type: cell-based; design: Concentration of metallo-β-lactamase inhibitor which restores susceptibility of efflux + (MB9798) strain to imipenem: unit not given here; settings: C, D serine β-lactamase inhibitor closely related to relebactam; for Concentration of metallo-β-lactamase inhibitor which restores susceptibility of efflux + (MB9798) strain to imipenem: imipenem at 2 μg/mL, in the presence of a class A; for P. aeruginosa expressing IMP-1, efflux + (MB9798) MITC95: concentration restoring susceptibility to imipenem at 2 μg/mL in the presence of a class A
Outline: (§3)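 P. aeruginosa PAO1-derived IMP-1 strains, efflux+ MB9798 and efflux− MB9799, tested by standard microbroth MIC with imipenem and/or ceftazidime fixed, usually at CLSI breakpoint, plus fixed class A/C β-lactamase inhibitor against AmpC. Inhibitor titrated; concentration restoring susceptibility recorded; MB9798/MB9799 fold difference indicates efflux.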

[8] = test system: Pseudomonas aeruginosa efflux− (MB9799), IMP-1; type: cell-based; settings: C, D serine β-lactamase inhibitor closely related to relebactam; for Concentration of metallo-β-lactamase inhibitor which restores susceptibility of efflux − (MB9799) strain to imipenem: imipenem at 2 μg/mL, in the presence of a class A; for P. aeruginosa expressing IMP-1, efflux − (MB9799) MITC95: concentration restoring susceptibility to imipenem at 2 μg/mL in the presence of a class A
Outline: as §3

[9] = test system: Pseudomonas aeruginosa MB9798 vs MB9799
Outline: as §3

[10] = fluorescence assay, read-out: NDM-1 IC50
[11] = fluorescence assay, read-out: VIM-1 IC50
[12] = fold difference between efflux+ (MB9798) and efflux− (MB9799) strains, imipenem at 2 μg/mL
[13] = ratio MITC95 PA_9798/MITC95 PA_9799

Chain of IMP-1 (P52699 whole entry, looked up, species assumed): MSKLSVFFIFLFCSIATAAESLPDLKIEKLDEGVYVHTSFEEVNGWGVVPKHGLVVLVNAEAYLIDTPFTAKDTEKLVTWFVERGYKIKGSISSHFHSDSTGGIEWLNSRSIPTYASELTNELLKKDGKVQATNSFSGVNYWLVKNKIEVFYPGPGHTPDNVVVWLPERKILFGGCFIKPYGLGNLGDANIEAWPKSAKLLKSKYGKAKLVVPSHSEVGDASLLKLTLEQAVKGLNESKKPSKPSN

NCC(CN)NS(=O)(=O)c1ccc(-c2ccnc(N)c2)c(-c2nn[nH]n2)c1S(N)(=O)=O [Example 405]
IC50 [1]: 17.9 nM | IC50 [2, 10]: 7.69 nM | IC50 [3, 11]: 5.94 nM | Escherichia coli MITC95 [4]: 3.125 µM | Klebsiella pneumoniae MITC95 [5]: 25 µM | Serratia marcescens MITC95 [6]: 6.25 µM | Concentration of metallo-β-lactamase inhibitor which restores susceptibility of efflux + (MB9798) strain to imipenem [7]: 25 | Concentration of metallo-β-lactamase inhibitor which restores susceptibility of efflux − (MB9799) strain to imipenem [8]: 12.5 | Efflux ratio [9, 12]: 2.00

Nc1nc2c(-c3ccc(S(=O)(=O)N4CCC(N)CC4)c(S(N)(=O)=O)c3-c3nn[nH]n3)cccc2s1 [Example 148, 3-(2-aminobenzo[d]thiazol-4-yl)-6-((4-aminopiperidin-1-yl)sulfonyl)-2-(2H-tetrazol-5-yl)benzenesulfonamide]
IC50 [1]: 0.49 nM | IC50 [2, 10]: 0.213 nM | IC50 [3, 11]: 0.749 nM | Escherichia coli expressing NDM-1 (CLB30016) MITC95 [4]: 12.5 µM | Klebsiella pneumoniae expressing VIM-1 (IHMA599644) MITC95 [5]: 6.25 µM | Serratia marcescens expressing IMP-1 (CL5741) MITC95 [6]: 3.125 µM | P. aeruginosa expressing IMP-1, efflux + (MB9798) MITC95 [7]: 3.125 µM | P. aeruginosa expressing IMP-1, efflux − (MB9799) MITC95 [8]: 1.563 µM | Efflux ratio [9, 13]: 2.00

Nc1ccc2cccc(-c3ccc(S(=O)(=O)N[C@H]4CNC[C@H]4N)c(S(N)(=O)=O)c3-c3nn[nH]n3)c2n1 [Example 324, N1-((3S,4R)-4-aminopyrrolidin-3-yl)-4-(2-aminoquinolin-8-yl)-3-(1H-tetrazol-5-yl)benzene-1,2-disulfonamide]
IC50 [1]: 0.213 nM | IC50 [2, 10]: 0.0387 nM | IC50 [3, 11]: 0.13 nM | Escherichia coli MITC95 [4]: 1.563 µM | Klebsiella pneumoniae MITC95 [5]: 1.563 µM | Serratia marcescens MITC95 [6]: 0.7813 µM | P. aeruginosa expressing IMP-1, efflux + (MB9798) MITC95 [7]: 0.7813 µM | P. aeruginosa expressing IMP-1, efflux − (MB9799) MITC95 [8]: 0.7813 µM | Efflux ratio [9, 13]: 1.00

Nc1nc2c(-c3ccc(S(=O)(=O)NCCC(N)C(F)F)c(S(N)(=O)=O)c3-c3nnn[nH]3)cccc2s1.O=CO (stereo not drawn) [Example 124, 4-(4-(2-aminobenzo[d]thiazol-4-yl)-2-sulfamoyl-3-(1H-tetrazol-5-yl)phenylsulfonamido)-1,1-difluorobutan-2-aminium formate]
IC50 [1]: 0.222 nM | IC50 ([2]; NDM-1 IC50, fluorescence assay): 0.00652 nM | IC50 ([3]; VIM-1 IC50, fluorescence assay): 0.254 nM | Escherichia coli expressing NDM-1 (CLB30016) MITC95 [4]: 12.5 µM | Klebsiella pneumoniae expressing VIM-1 (IHMA599644) MITC95 [5]: 12.5 µM | Serratia marcescens expressing IMP-1 (CL5741) MITC95 [6]: 3.125 µM | P. aeruginosa expressing IMP-1, efflux + (MB9798) MITC95 [7]: 12.5 µM | P. aeruginosa expressing IMP-1, efflux − (MB9799) MITC95 [8]: 3.125 µM | Efflux ratio [9, 13]: 4.00

CN1CCC(NS(=O)(=O)c2ccc(-c3cccc4sc(N)nc34)c(-c3nnn[nH]3)c2S(N)(=O)=O)C1 (stereo not drawn) [Example 53, 4-(2-amino-1,3-benzothiazol-4-yl)-N1-(1-methylpyrrolidin-3-yl)-3-(1H-tetrazol-5-yl)benzene-1,2-disulfonamide]
IC50 [1]: 0.298 nM | IC50 [2, 10]: 0.0415 nM | IC50 [3, 11]: 0.192 nM | Escherichia coli expressing NDM-1 (CLB30016) MITC95 [4]: 3.125 µM | Klebsiella pneumoniae expressing VIM-1 (IHMA599644) MITC95 [5]: 3.125 µM | Serratia marcescens expressing IMP-1 (CL5741) MITC95 [6]: 1.563 µM | P. aeruginosa expressing IMP-1, efflux + (MB9798) MITC95 [7]: 1.563 µM | P. aeruginosa expressing IMP-1, efflux − (MB9799) MITC95 [8]: 1.563 µM | Efflux ratio [9, 13]: 1.00

NCC(CN)NS(=O)(=O)c1ccc(-c2cccc3[nH]c(N)nc23)c(-c2nn[nH]n2)c1S(N)(=O)=O [Example 429]
IC50 [1]: 0.489 nM | IC50 [2, 10]: 0.0819 nM | IC50 [3, 11]: 0.228 nM | Escherichia coli MITC95 [4]: 0.5208 µM | Klebsiella pneumoniae MITC95 [5]: 1.563 µM | Serratia marcescens MITC95 [6]: 1.563 µM | Concentration of metallo-β-lactamase inhibitor which restores susceptibility of efflux + (MB9798) strain to imipenem [7]: 0.7813 | Concentration of metallo-β-lactamase inhibitor which restores susceptibility of efflux − (MB9799) strain to imipenem [8]: 0.7813 | Efflux ratio [9, 12]: 1.00

NCC(F)(F)CNS(=O)(=O)c1ccc(-c2cccc3sc(N)nc23)c(-c2nnn[nH]2)c1S(N)(=O)=O [Example 47, 4-(2-amino-1,3-benzothiazol-4-yl)-N1-(3-amino-2,2-difluoropropyl)-3-(1H-tetrazol-5-yl)benzene-1,2-disulfonamide]
IC50 [1]: 0.484 nM | IC50 [2, 10]: 0.0658 nM | IC50 [3, 11]: 0.304 nM | Escherichia coli expressing NDM-1 (CLB30016) MITC95 [4]: 6.25 µM | Klebsiella pneumoniae expressing VIM-1 (IHMA599644) MITC95 [5]: 12.5 µM | Serratia marcescens expressing IMP-1 (CL5741) MITC95 [6]: 3.125 µM | P. aeruginosa expressing IMP-1, efflux + (MB9798) MITC95 [7]: 3.125 µM | P. aeruginosa expressing IMP-1, efflux − (MB9799) MITC95 [8]: 3.125 µM | Efflux ratio [9, 13]: 1.00

Nc1ncccc1-c1ccc(S(=O)(=O)N[C@H]2C[C@@H]2N)c(S(N)(=O)=O)c1-c1nn[nH]n1 [Example 216, N1-((1S)-2-amino-cyclopropyl)-4-(2-aminopyridin-3-yl)-3-(2H-tetrazol-5-yl)benzene-1,2-disulfonamide]
IC50 [1]: 1.83 nM | IC50 [2, 10]: 0.237 nM | IC50 ([3]; VIM-1 IC50, fluorescence assay): 0.269 nM | Escherichia coli expressing NDM-1 (CLB30016) MITC95 [4]: 0.1953 µM | Klebsiella pneumoniae expressing VIM-1 (IHMA599644) MITC95 [5]: 3.125 µM | Serratia marcescens expressing IMP-1 (CL5741) MITC95 [6]: 0.7813 µM | P. aeruginosa expressing IMP-1, efflux + (MB9798) MITC95 [7]: 6.25 µM | P. aeruginosa expressing IMP-1, efflux − (MB9799) MITC95 [8]: 1.563 µM | Efflux ratio [9, 13]: 4.00

CN1CCN(S(=O)(=O)c2ccc(-c3cccc4sc(N)nc34)c(-c3nnn[nH]3)c2S(N)(=O)=O)CC1 [Example 27, 3-(2-amino-1,3-benzothiazol-4-yl)-6-[(4-methylpiperazin-1-yl)sulfonyl]-2-(1H-tetrazol-5-yl)benzenesulfonamide]
IC50 [1]: 1.59 nM | IC50 [2, 10]: 0.825 nM | IC50 [3, 11]: 1.92 nM | Escherichia coli expressing NDM-1 (CLB30016) MITC95 [4]: 12.5 µM | Klebsiella pneumoniae expressing VIM-1 (IHMA599644) MITC95 [5]: 25 µM | Serratia marcescens expressing IMP-1 (CL5741) MITC95 [6]: 6.25 µM | P. aeruginosa expressing IMP-1, efflux + (MB9798) MITC95 [7]: 12.5 µM | P. aeruginosa expressing IMP-1, efflux − (MB9799) MITC95 [8]: 6.25 µM | Efflux ratio [9, 13]: 2.00

Nc1ccc(-c2ccc(S(=O)(=O)N[C@H]3CCNC3)c(S(N)(=O)=O)c2-c2nn[nH]n2)cn1 [Example 195, (S)-4-(6-aminopyridin-3-yl)-N^1-(pyrrolidin-3-yl)-3-(2H-tetrazol-5-yl)benzene-1,2-disulfonamide]
IC50 [1]: 0.523 nM | IC50 [2, 10]: 0.169 nM | IC50 [3, 11]: 0.182 nM | Escherichia coli expressing NDM-1 (CLB30016) MITC95 [4]: 0.5859 µM | Klebsiella pneumoniae expressing VIM-1 (IHMA599644) MITC95 [5]: 1.563 µM | Serratia marcescens expressing IMP-1 (CL5741) MITC95 [6]: 0.5859 µM | P. aeruginosa expressing IMP-1, efflux + (MB9798) MITC95 [7]: 0.7813 µM | P. aeruginosa expressing IMP-1, efflux − (MB9799) MITC95 [8]: 0.7813 µM | Efflux ratio [9, 13]: 1.00

NCCNS(=O)(=O)c1ccc(-c2cccc(C(=O)NC[C@@H](N)CO)c2N)c(-c2nn[nH]n2)c1S(N)(=O)=O [Example 332]
IC50 [1]: 3 nM | IC50 [2, 10]: 0.661 nM | IC50 [3, 11]: 0.23 nM | Escherichia coli MITC95 [4]: 1.563 µM | Klebsiella pneumoniae MITC95 [5]: 3.125 µM | Serratia marcescens MITC95 [6]: 1.563 µM | P. aeruginosa expressing IMP-1, efflux + (MB9798) MITC95 [7]: 1.563 µM | P. aeruginosa expressing IMP-1, efflux − (MB9799) MITC95 [8]: 1.563 µM | Efflux ratio [9, 13]: 1.00

Nc1nc2c(-c3ccc(S(=O)(=O)NCC4COCCN4)c(S(N)(=O)=O)c3-c3nnn[nH]3)cccc2s1.O=C(O)C(F)(F)F (stereo not drawn) [Example 96, 3-((4-(2-aminobenzo[d]thiazol-4-yl)-2-sulfamoyl-3-(1H-tetrazol-5-yl)phenylsulfonamido)methyl)morpholin-4-ium 2,2,2-trifluoroacetate]
IC50 [1]: 0.402 nM | IC50 [2, 10]: 0.0757 nM | IC50 ([3]; VIM-1 IC50, fluorescence assay): 0.299 nM | Escherichia coli expressing NDM-1 (CLB30016) MITC95 [4]: 6.25 µM | Klebsiella pneumoniae expressing VIM-1 (IHMA599644) MITC95 [5]: 6.25 µM | Serratia marcescens expressing IMP-1 (CL5741) MITC95 [6]: 3.125 µM | P. aeruginosa expressing IMP-1, efflux + (MB9798) MITC95 [7]: 3.125 µM | P. aeruginosa expressing IMP-1, efflux − (MB9799) MITC95 [8]: 3.125 µM | Efflux ratio [9, 13]: 1.00
